Test results as given in BigSolDB 2.1.

Nc1c(Cl)cc([N+](=O)[O-])cc1Cl
solubility (mole fraction)
Settings	278.15 K	283.15 K	288.15 K	293.15 K	298.15 K	303.15 K	308.15 K	313.15 K	318.15 K	323.15 K
in 1,4-dioxane	–	–	–	0.0251	0.0292	0.0337	0.0389	0.0447	0.0513	0.0598
in NMP	0.135	0.141	0.149	0.159	0.169	0.179	0.189	0.199	0.211	0.227
in acetonitrile	0.00152	0.00176	0.00211	0.00249	0.00293	0.00352	0.00411	0.00487	0.00577	0.00665
in cyclohexane	0.000119	0.000147	0.000185	0.000236	0.000301	0.000389	0.000501	0.000617	0.00074	0.000906
in ethanol	0.000879	0.00102	0.00123	0.00149	0.00183	0.00222	0.00268	0.00325	0.00384	0.00455
in ethyl acetate	0.0085	0.00938	0.0109	0.0126	0.0153	0.0177	0.0208	0.025	0.0291	0.0336
in ethylene glycol	0.000815	0.000969	0.00117	0.00139	0.00167	0.00195	0.00236	0.00281	0.00338	0.00412
in isopropanol	–	0.00093	0.00111	0.00133	0.00162	0.00195	0.00234	0.00281	0.00338	0.00413
in methanol	0.000705	0.000814	0.000987	0.00121	0.0015	0.00182	0.00224	0.00267	0.00314	0.00377
in n-butanol	0.00121	0.00148	0.00172	0.00216	0.0026	0.00308	0.00378	0.00446	0.00543	0.00638
in n-propanol	0.00102	0.00123	0.00146	0.00176	0.00216	0.00258	0.00307	0.00364	0.00441	0.00546
in water	1.88e-06	2.53e-06	3.43e-06	4.76e-06	6.43e-06	8.31e-06	1.06e-05	1.37e-05	1.72e-05	2.18e-05
